Assay results reported in patent US20230146455A1, “TREATMENT OF INFLAMMATORY DISEASES WITH PEPTIDES AND PHARMACEUTICAL COMPOSITIONS” (Yuyu Pharma, Inc., priority 2020, published 2023).
Values joined by “and” are separate entries in the source; they are usually repeats but may differ in a detail not shown here. Equal entries are not always repeated. Where a SMILES comes first, the peptide text is derived from it. [ ]: non-standard residue; d: D form. Hyp = O=C(O)[C@@H]1C[C@@H](O)CN1

Test system: IL-1 beta/IL-1F2
Assay: Example 9 Luminex, LPS hPBMCs: IL-1 beta/IL-1F2
Format: cell-based, human
Protocol: Treatment Human PBMCs were pretreated with YY-101, YDE-011 and YDE-043 or reference compound; Xiidra® at various concentration (ranging from 1 nM to 100 uM) for 2 h before stimulation. An equal volume of 0.5% DMSO was used as a vehicle control. Then, the cells were treated with LPS at 5 ug/ml. The supernatants from treated cells were harvested at 24 h and placed in a 96 well for Luminex cytokine & chemokine profiling using a Luminex 200 multiplex assay (Luminex; R&D system, USA).
The main study arm with triplicate wells per group in a 24-well plate: • 1. Blank • 2. PBMC: 0.5% DMSO • 3. PBMC+LPS (5 ug/ml) • 4. PBMC+YY-101 100 uM • 5. PBMC+YY-101 10 uM • 6. PBMC+YY-101 1 uM • 7. PBMC+YY-101 0.1 uM • 8. PBMC+YY-101 0.01 uM • 9. PBMC+LPS (5 ug/ml)+Xiidra®100 uM • 10. PBMC+LPS (5 ug/ml)+Xiidra® 10 uM • 11. PBMC+LPS (5 ug/ml)+Xiidra® 1 uM • 12. PBMC+LPS (5 ug/ml)+Xiidra®0.1 uM • 13. PBMC+LPS (5 ug/ml)+Xiidra®0.01 uM • 14. PBMC+LPS (5 ug/ml)+Xiidra®0.001 uM • 15. PBMC+LPS (5 ug/ml)+YY-101 100 uM • 16. PBMC+LPS (5 ug/ml)+YY-101 10 uM • 17. PBMC+LPS (5 ug/ml)+YY-101 1 uM • 18. PBMC+LPS (5 ug/ml)+YY-101 0.1 uM • 19. PBMC+LPS (5 ug/ml)+YY-101 0.01 uM • 20. PBMC+LPS (5 ug/ml)+YY-101 0.001 uM • 21. PBMC+LPS (5 ug/ml)+YDE-011 100 uM • 22. PBMC+LPS (5 ug/ml)+YDE-011 10 uM • 23. PBMC+LPS (5 ug/ml)+YDE-011 1 uM • 24. PBMC+LPS (5 ug/ml)+YDE-011 0.1 uM • 25. PBMC+LPS (5 ug/ml)+YDE-011 0.01 uM • 26. PBMC+LPS (5 ug/ml)+YDE-011 0.001 uM • 27. PBMC+LPS (5 ug/ml)+YDE-043 100 uM • 28. PBMC+LPS (5 ug/ml)+YDE-043 10 uM • 29. PBMC+LPS (5 ug/ml)+YDE-043 1 uM • 30. PBMC+LPS (5 ug/ml)+YDE-043 0.1 uM • 31. PBMC+LPS (5 ug/ml)+YDE-043 0.01 uM • 32. PBMC+LPS (5 ug/ml)+YDE-043 0.001 uM
Multiplex assay was used to measure 30 cytokines and chemokines. The 1:2, 1:10 and 1:200 diluted cell supernatant and serial dilution of the standard were dispensed into a 96 well plate at 50 ul/well. Then, the pre-mixed cocktail of antibody-coated magnetic beads was dispensed at 50 ul/well and incubated at room temperature for 2 h in a horizontal orbital microplate shaker at 800±500 rpm. The beads were washed using a magnetic device to prevent loss. The biotin-antibody was dispensed in 50 ul of each well and incubated at room temperature for 1 h in a shaker at 800±500 rpm. After washing, streptavidin-PE was added at 50 ul/well and incubated at room temperature for 30 min in a shaker under the same conditions. Finally, after washing, wash buffer (100 ul/well) was added to the plate and incubated in a shaker for 2 min. The Luminex™ 200 setting were set according to the manufacturer's protocol. The data was calculated with a standard five-parameter logistic nonlinear regression analysis of the data (xPonent software 4.2, USA). The levels of cytokine/chemokine are normalized to the live cell counts (1×10^5 cells/mL) and presented as concentrations per mL (pg/mL or ng/mL).

[1] = PBMC + LPS(5 ug/ml) + test article 0.001 uM, Mean
[2] = PBMC + LPS(5 ug/ml) + test article 0.001 uM, single replicates
[3] = PBMC + LPS(5 ug/ml) + test article 0.01 uM, Mean
[4] = PBMC + LPS(5 ug/ml) + test article 0.01 uM, single replicates
[5] = PBMC + LPS(5 ug/ml) + test article 0.1 uM, Mean
[6] = PBMC + LPS(5 ug/ml) + test article 0.1 uM, single replicates
[7] = PBMC + LPS(5 ug/ml) + test article 1 uM, Mean
[8] = PBMC + LPS(5 ug/ml) + test article 1 uM, single replicates
[9] = PBMC + LPS(5 ug/ml) + test article 10 uM, Mean
[10] = PBMC + LPS(5 ug/ml) + test article 10 uM, single replicates
[11] = PBMC + LPS(5 ug/ml) + test article 100 uM, Mean
[12] = PBMC + LPS(5 ug/ml) + test article 100 uM, single replicates

SMILES | Concentration [1] [pg/mL] | MFI [1] | conc/live cell [1] [pg/10^5] | Concentration [2] | MFI [2] | conc/live cell [2] | Concentration [3] [pg/mL] | MFI [3] | conc/live cell [3] [pg/10^5] | Concentration [4] | MFI [4] | conc/live cell [4] | Concentration [5] [pg/mL] | MFI [5] | conc/live cell [5] [pg/10^5] | Concentration [6] | MFI [6] | conc/live cell [6] | Concentration [7] [pg/mL] | MFI [7] | other results
CC(C)C[C@H](NC(=O)CNC(=O)[C@H](CC(C)C)NC(=O)[C@H](CCC(N)=O)NC(=O)CNC(=O)[C@@H]1C[C@@H](O)CN1)C(=O)N[C@@H](C)C(=O)NCC(=O)N1CCC[C@H]1C(=O)N[C@@H](CCCCN)C(=O)O [YDE-011] (H-[Hyp]GQLGLAGPK-OH) | 6481.9 | 1671.0 | 1225.5 | 6498.5 pg/mL and 6544.6 pg/mL and 6402.7 pg/mL | 1675.5 and 1688.0 and 1649.5 | 1444.1 pg/10^5 and 1128.4 pg/10^5 and 1103.9 pg/10^5 | 6567.3 | 1694.2 | 1128.7 | 6557.5 pg/mL and 6476.4 pg/mL and 6668.1 pg/mL | 1691.5 and 1669.5 and 1721.5 | 1057.7 pg/10^5 and 1269.9 pg/10^5 and 1058.4 pg/10^5 | 6345.6 | 1634.0 | 1115.2 | 6305.1 pg/mL and 6376.9 pg/mL and 6354.8 pg/mL | 1623.0 and 1642.5 and 1636.5 | 955.3 pg/10^5 and 1275.4 pg/10^5 and 1114.9 pg/10^5 | 6587.0 | 1699.5 | conc/live cell [7]: 1314.4 pg/10^5; Concentration [8]: 6553.8 pg/mL and 6454.2 pg/mL and 6753.1 pg/mL; MFI [8]: 1690.5 and 1663.5 and 1744.5; conc/live cell [8]: 1191.6 pg/10^5 and 1344.6 pg/10^5 and 1406.9 pg/10^5; Concentration [9]: 6933.0 pg/mL; MFI [9]: 1793.2; conc/live cell [9]: 1319.4 pg/10^5; Concentration [10]: 7010.0 pg/mL and 6782.6 pg/mL and 7006.3 pg/mL; MFI [10]: 1814.0 and 1752.5 and 1813.0; conc/live cell [10]: 1298.1 pg/10^5 and 1169.4 pg/10^5 and 1490.7 pg/10^5; Concentration [11]: 8675.0 pg/mL; MFI [11]: 2260.0; conc/live cell [11]: 1430.0 pg/10^5; Concentration [12]: 8497.8 pg/mL and 8918.4 pg/mL and 8608.8 pg/mL; MFI [12]: 2213.0 and 2324.5 and 2242.5; conc/live cell [12]: 1393.1 pg/10^5 and 1462.0 pg/10^5 and 1434.8 pg/10^5
CC(C)C[C@H](NC(=O)[C@H](CCC(N)=O)NC(=O)CNC(=O)[C@@H]1C[C@@H](O)CN1)C(=O)NCC(=O)O [YDE-043] (H-[Hyp]GQLG-OH; N-terminus and C-terminus assumed) | 6632.8 | 1711.8 | 1343.9 | 6369.5 pg/mL and 7037.7 pg/mL and 6491.1 pg/mL | 1640.5 and 1821.5 and 1673.5 | 1447.6 pg/10^5 and 1173.0 pg/10^5 and 1411.1 pg/10^5 | 6569.2 | 1694.7 | 1253.9 | 6432.1 pg/mL and 6655.2 pg/mL and 6620.2 pg/mL | 1657.5 and 1718.0 and 1708.5 | 1429.4 pg/10^5 and 1008.4 pg/10^5 and 1324.0 pg/10^5 | 6324.2 | 1628.2 | 1172.5 | 6049.3 pg/mL and 6384.2 pg/mL and 6539.0 pg/mL | 1553.5 and 1644.5 and 1686.5 | 1209.9 pg/10^5 and 1140.0 pg/10^5 and 1167.7 pg/10^5 | 6195.3 | 1593.2 | conc/live cell [7]: 1173.7 pg/10^5; Concentration [8]: 6303.2 pg/mL and 5942.7 pg/mL and 6340.0 pg/mL; MFI [8]: 1622.5 and 1524.5 and 1632.5; conc/live cell [8]: 1086.8 pg/10^5 and 1238.1 pg/10^5 and 1196.2 pg/10^5; Concentration [9]: 6556.9 pg/mL; MFI [9]: 1691.3; conc/live cell [9]: 1214.7 pg/10^5; Concentration [10]: 6382.4 pg/mL and 6634.9 pg/mL and 6653.4 pg/mL; MFI [10]: 1644.0 and 1712.5 and 1717.5; conc/live cell [10]: 1227.4 pg/10^5 and 1228.7 pg/10^5 and 1188.1 pg/10^5; Concentration [11]: 8209.5 pg/mL; MFI [11]: 2135.8; conc/live cell [11]: 1304.8 pg/10^5; Concentration [12]: 8744.5 pg/mL and 7674.4 pg/mL; MFI [12]: 2278.5 and 1993.0; conc/live cell [12]: 1410.4 pg/10^5 and 1199.1 pg/10^5
